Tests used:
[1] = system: HepG2 cells; assay: Oxidative stress assay (ROS, DHE fluorescence); assay type: cell-based, human
Experimental: Three independent studies in triplicate were conducted on HepG2 cells, and two independent studies in triplicate were conducted on primary human hepatocytes.
(§1) To assess the potential for ubrogepant to induce oxidative stress, assays to measure formation of reactive oxygen species (ROS) were conducted by Cyprotex. HepG2 cells were cultured in triplicate with ubrogepant for 6 or 24 hours at concentrations ranging from 0.01 – 150 μM, and ROS formation was assayed by DHE fluorescence assay. HepG2 cells have reduced metabolic activity relative to primary human hepatocytes.^3,4 Three independent studies in triplicate were conducted on HepG2 cells.
as §1, with “MK-3207” for “ubrogepant”, “ROS” for “reactive oxygen species (ROS)”, “μM” for “μM,”, “conducted.” for “conducted on HepG2 cells.”

[2] = target: T1, MRP4 (Homo sapiens, UniProt O15439); assay: MRP4 vesicular transport inhibition assay; assay type: biochemical; settings: for inhibition of MRP4-mediated probe substrate transport: vesicular transport inhibition assay
T1 construct: Solvo Biotechnology (Szeged, Hungary), contract laboratory that ran the assay
T1 sequence (O15439 1-1325): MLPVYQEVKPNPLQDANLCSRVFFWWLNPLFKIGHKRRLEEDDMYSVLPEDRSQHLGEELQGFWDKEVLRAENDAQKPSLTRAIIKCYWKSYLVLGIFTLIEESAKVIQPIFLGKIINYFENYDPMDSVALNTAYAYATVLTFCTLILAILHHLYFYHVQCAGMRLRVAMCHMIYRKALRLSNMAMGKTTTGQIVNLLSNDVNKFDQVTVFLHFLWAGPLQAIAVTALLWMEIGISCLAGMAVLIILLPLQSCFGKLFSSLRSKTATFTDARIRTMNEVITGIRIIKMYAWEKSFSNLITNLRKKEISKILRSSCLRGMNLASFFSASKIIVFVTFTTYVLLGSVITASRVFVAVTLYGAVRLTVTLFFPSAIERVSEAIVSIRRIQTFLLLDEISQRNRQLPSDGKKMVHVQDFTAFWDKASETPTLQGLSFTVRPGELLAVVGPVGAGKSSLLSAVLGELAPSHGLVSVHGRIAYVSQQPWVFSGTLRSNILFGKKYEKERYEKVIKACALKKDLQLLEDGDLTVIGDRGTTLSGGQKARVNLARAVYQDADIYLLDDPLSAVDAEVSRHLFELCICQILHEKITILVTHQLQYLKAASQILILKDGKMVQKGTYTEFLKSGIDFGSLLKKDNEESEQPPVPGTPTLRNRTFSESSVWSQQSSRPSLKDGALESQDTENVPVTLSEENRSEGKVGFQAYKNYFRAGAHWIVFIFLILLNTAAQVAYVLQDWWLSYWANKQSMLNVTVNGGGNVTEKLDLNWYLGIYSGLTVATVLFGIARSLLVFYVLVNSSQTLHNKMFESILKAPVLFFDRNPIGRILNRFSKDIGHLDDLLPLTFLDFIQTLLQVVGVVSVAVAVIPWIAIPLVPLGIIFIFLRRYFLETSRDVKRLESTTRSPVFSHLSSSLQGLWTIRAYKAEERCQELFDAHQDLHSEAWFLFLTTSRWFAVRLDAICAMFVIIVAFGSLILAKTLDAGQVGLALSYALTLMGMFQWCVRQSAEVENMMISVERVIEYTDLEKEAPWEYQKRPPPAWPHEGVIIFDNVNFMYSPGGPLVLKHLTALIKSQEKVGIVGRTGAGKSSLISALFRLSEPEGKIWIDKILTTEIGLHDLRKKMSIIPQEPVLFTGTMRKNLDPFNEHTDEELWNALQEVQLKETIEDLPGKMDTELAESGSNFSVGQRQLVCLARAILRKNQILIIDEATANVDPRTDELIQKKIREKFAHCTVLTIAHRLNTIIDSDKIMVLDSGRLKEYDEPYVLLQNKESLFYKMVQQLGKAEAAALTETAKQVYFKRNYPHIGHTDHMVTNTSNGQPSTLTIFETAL
Experimental: To assess the functional impact of ubrogepant on the human ABC efflux transporters BSEP, MRP3, and MRP4, in vitro vesicular transport inhibition assays were conducted by Solvo Biotechnology (Szeged, Hungary). The ability of ubrogepant to inhibit the BSEP-mediated transport (and accumulation) of a probe substrate was tested at concentrations ranging from 0.04 – 30 μM, where the latter defined the upper limit of compound solubility in the BSEP assay buffer. For the MRP3 and MRP4 vesicle-based transporter assessments, ubrogepant concentrations of 0.1 to 70 μM were used. To assess the functional impact of ubrogepant on the human SLC (uptake) transporter NTCP, in vitro experiments were performed using HEK293 cells stably expressing NTCP. The ability of ubrogepant to inhibit NTCP-mediated uptake (and accumulation) of taurocholate was tested at concentrations ranging from 0.04 – 30 μM.
To assess the functional impact of MK-3207 on the human ABC efflux transporters BSEP, MRP3 and MRP4, in vitro vesicular transport inhibition assays were conducted by Solvo Biotechnology (Szeged, Hungary) and overseen by DSSI. BSEP transport was assessed in the presence of 0.5-30 µM MK-3207; MRP3 and MRP4 transport was assessed in the presence of 0.11-80 µM MK-3207. The upper limits of these ranges were determined by compound solubility in each assay buffer. NTCP transporter inhibition was assessed in NTCP-expressing HEK293 cells in the presence of 0.03 – 25 µM MK-3207.
IC50 values for MK-3207 were calculated for each of the transporters; these values were used as inputs into DILIsym. It was assumed that inhibition type for MK-3207 for MRP3 and MRP4 was mixed with α= 5; this is a typical value for bile acid transporter inhibitors in the experience of the DSS team.

[3] = system: human hepatocytes; assay: Covalent protein binding in human hepatocytes / reactive metabolite body burden; assay type: in vitro ADME; settings: for Projected body burden from covalent-binding studies: covalent protein binding × dose, telcagepant 560 mg, MK-3207 80 mg, ubrogepant 200 mg; for covalent protein binding: radioactivity bound in human hepatocytes
Experimental: The “body burden” is a quantitative estimate of reactive metabolite exposure that was determined for each drug based on in vitro covalent protein binding of radioactivity in human hepatocytes (in pmol equivalents/mg) multiplied by a clinically effective daily dose (in mg/day). Detailed methods used in the in vitro human hepatocyte covalent-binding experiments have been reported by [Nakayama et al. (2009)].

Structure (SMILES) | induction of oxidative stress (ROS formation) ([1]; HepG2, 6-hour incubation) | induction of oxidative stress (ROS formation) ([1]; HepG2, 24-hour incubation) | inhibition of MRP4-mediated probe substrate transport [2] | Projected body burden from covalent-binding studies [3] | covalent protein binding [3] [pmol equivalents/mg] | IC50 ([2]; curve fitting assuming maximum inhibition at higher concentrations is 100%, read-out: MRP4 estimated lowest possible IC50) [µM] | inhibition at 20 µM ([2]; human, membrane vesicles with MRP4 (vesicular transport assay), read-out: maximum inhibition at the highest concentration tested, MRP4) [%] | inhibition at 70 µM ([2]; human, membrane vesicles with MRP4 (vesicular transport assay), 70 µM (solubility limit), read-out: maximum inhibition at the highest concentration tested, MRP4) [%]
O=C(CN1C(=O)C2(CCCC2)NC[C@H]1c1cc(F)cc(F)c1)Nc1ccc2c(c1)C[C@@]1(C2)C(=O)Nc2ncccc21 [MK-3207] | not evident | modest induction of oxidative stress | No inhibition was observed | 14 720 | 184 |  |  | 
O=C(N[C@@H]1CC[C@@H](c2cccc(F)c2F)CN(CC(F)(F)F)C1=O)N1CCC(n2c(=O)[nH]c3ncccc32)CC1 [Telcagepant] |  | modest induction of oxidative stress | inhibited | 14600 | 26 | ≥ 16.9 | < 50 | 
C[C@@H]1[C@H](c2ccccc2)C[C@H](NC(=O)c2cnc3c(c2)C[C@@]2(C3)C(=O)Nc3ncccc32)C(=O)N1CC(F)(F)F [Ubrogepant] | not evident | modest induction of oxidative stress | did not inhibit MRP4 | 4600 | 23 |  |  | < 50

Reference: article PMC8312697, “Mechanistic Investigations Support Liver Safety of Ubrogepant” (Toxicological Sciences, 2020)
